Assays:
[1] = target: T1, recombinant human HDAC1 (Homo sapiens, UniProt Q13547); assay: In vitro enzyme assay of recombinant HDAC1; assay type: biochemical; conditions: recombinant human HDAC1, acetylated histone H4 peptide; read-out: IC50 (nM) Test (a) (In vitro assay for the inhibition of HDAC1)
T1 construct: FLAG (C); made in house; host or cells: Hi5 insect cells
Description: HDAC inhibitors were screened against recombinant human HDAC1 produced in Hi5 insect cells. The enzyme was cloned with a FLAG tag at the C-terminal of the gene and affinity purified using Anti-FLAG M2 agarose from SIGMA (A2220).
The deacetylase assays were carried out in a 50 μl reaction. HDAC1 (75 ng of enzyme) diluted in 15 μl of reaction buffer (25 mM TrisHCl (pH 8), 137 mM NaCl, 2.7 mM KCl, 1 mM MgCl2) was mixed with either buffer alone (10 μl) or buffer containing compound (10 μl) for 30 minutes at ambient temperature. 25 μM acetylated histone H4 peptide (KI 174 Biomol) diluted in 25 μl of buffer was then added to the reaction and incubated for one hour at ambient temperature. The reaction was stopped by addition of an equal volume (50 μl) of Fluor de Lys developer (Biomol) containing Trichostatin A at 2 μM. The reaction was allowed to develop for 30 minutes at ambient temperature and then fluorescence measured at an excitation wavelength of 360 nm and an emission wavelength of 465 nm. IC50 values for HDAC enzyme inhibitors were determined by performing dose response curves with individual compounds and determining the concentration of inhibitor producing fifty percent decrease in the maximal signal (diluent control).

[2] = system: HCT116 cells; assay: In vitro assay of inhibition of proliferation in whole cells (MTS); assay type: cell-based; conditions: Homo sapiens, HCT-116, 72 hours, read-out: IC50 (nM) Test (b) (In vitro assay for the inhibition of whole cell proliferation)
Description: Inhibition of proliferation in whole cells was assayed using the Promega cell titer 96 aqueous proliferation assay (Promega #G5421). HCT116 cells were seeded in 96 well plates at 1×10^3 cells/well, and allowed to adhere overnight. They were treated with inhibitors for 72 hours. 20 μl of the tetrazolium dye MTS was added to each well and the plates were re-incubated for 3 hours. Absorbance was then measured on a 96 well plate reader at […]. The IC50 values for HDAC inhibitors were determined by performing dose response curves with individual compounds and determining the concentration of inhibitor producing fifty percent decrease in the maximal signal (diluent control).

T1 sequence (Q13547 whole entry): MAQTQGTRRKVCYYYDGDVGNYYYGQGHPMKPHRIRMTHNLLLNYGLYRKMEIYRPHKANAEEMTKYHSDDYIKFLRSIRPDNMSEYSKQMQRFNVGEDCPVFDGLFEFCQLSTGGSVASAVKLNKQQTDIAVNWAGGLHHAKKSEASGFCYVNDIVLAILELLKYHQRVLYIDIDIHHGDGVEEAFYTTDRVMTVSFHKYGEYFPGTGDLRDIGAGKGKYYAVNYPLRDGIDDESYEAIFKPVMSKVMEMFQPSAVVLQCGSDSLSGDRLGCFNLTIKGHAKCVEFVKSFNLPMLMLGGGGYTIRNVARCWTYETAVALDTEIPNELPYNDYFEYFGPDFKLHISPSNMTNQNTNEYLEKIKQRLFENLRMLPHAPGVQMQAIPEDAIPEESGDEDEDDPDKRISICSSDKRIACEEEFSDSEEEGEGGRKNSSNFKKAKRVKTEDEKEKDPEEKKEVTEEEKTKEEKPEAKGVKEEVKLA

- IC50 [1]: 29 nM
- IC50 [2]: 183 nM
SMILES: CC(C)NCc1cnc(-c2ccc(C(=O)Nc3ccccc3N)cc2)s1 [Example 1, N-(2-aminophenyl)-4-{5-[(isopropylamino)methyl]-1,3-thiazol-2-yl}benzamide]
